Reference: publication PMC2994747, “Molecular Characterization of c-Abl/c-Src Kinase Inhibitors Targeted against Murine Tumour Progenitor Cells that Express Stem Cell Markers” (PLoS ONE, 2010)

How the values were obtained:
c-Abl = biological target: T1, c-Abl (Homo sapiens, UniProt P00519); assay: Abl filter-binding kinase assay (Abtide, [γ-32P]ATP); type: biochemical; settings: isolated Abl; calculated from ID50, ATP-competitive; E0 0.005, S0 0.012 µM
T1 construct: His tag; purchased Upstate (Lake Placid, NY, USA)
T1 sequence (P00519 whole entry): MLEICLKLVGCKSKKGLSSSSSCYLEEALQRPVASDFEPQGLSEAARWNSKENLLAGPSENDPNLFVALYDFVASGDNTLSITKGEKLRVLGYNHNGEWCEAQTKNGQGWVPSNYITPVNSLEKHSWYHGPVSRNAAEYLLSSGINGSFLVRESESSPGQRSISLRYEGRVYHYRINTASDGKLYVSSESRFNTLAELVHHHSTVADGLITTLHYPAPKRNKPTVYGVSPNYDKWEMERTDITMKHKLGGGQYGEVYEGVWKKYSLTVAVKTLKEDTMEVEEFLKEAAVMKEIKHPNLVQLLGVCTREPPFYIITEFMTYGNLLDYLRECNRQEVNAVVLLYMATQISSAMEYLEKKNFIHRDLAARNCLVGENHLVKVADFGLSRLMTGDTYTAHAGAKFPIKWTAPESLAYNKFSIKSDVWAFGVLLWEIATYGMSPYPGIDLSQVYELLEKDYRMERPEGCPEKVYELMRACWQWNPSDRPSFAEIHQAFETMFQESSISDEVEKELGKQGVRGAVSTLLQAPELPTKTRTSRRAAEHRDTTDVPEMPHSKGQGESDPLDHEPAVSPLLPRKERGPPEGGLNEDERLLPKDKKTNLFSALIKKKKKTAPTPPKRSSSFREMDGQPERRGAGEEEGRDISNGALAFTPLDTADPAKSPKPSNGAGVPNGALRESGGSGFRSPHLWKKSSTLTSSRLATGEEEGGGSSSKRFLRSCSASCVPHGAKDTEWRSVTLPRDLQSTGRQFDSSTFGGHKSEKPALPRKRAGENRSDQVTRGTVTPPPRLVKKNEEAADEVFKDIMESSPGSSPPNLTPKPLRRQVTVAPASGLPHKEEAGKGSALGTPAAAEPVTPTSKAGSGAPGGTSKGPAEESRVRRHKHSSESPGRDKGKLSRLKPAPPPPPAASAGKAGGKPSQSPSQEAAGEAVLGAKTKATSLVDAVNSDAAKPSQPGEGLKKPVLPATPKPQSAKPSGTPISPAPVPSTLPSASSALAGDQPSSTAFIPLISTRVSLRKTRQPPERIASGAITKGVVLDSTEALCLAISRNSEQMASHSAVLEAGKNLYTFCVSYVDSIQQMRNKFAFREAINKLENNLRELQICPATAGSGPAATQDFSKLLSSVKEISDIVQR
Procedure: (§1) Baculovirus-produced recombinant purified his-tagged active against human Src and Abl were purchased from Upstate (Lake Placid, NY, USA).
(§2) Src activity was measured in a filter-binding assay using the Src Assay Kit (Upstate, Lake Placid, NY, USA), according to the manufacturer's protocol, using the specific Src peptide substrate [[…]] in the presence of 0.125 pmol of Src and 0.160 pmol of [γ-^32P]ATP. Abl activity was measured in a filter-binding assay using an Abl specific peptide substrate (Abtide, Upstate). Reaction conditions were (in a final volume of 10 µl): 25 mM Tris-HCl pH 7.5, 1 mM DTT, 0.012 µM [γ-^32P]ATP, 0.022 µM c-Abl. Reactions were incubated 10 min at 30°C.The samples (9 µl) were spotted on paper cellulose filters which were washed according to the manufacturer's protocol. Filter-bound radioactivity was measured by liquid scintillation with a Microbeta-Trilux apparatus (PerkinElmer, Waltham, MA, USA).
(§3) The ID50 were converted to Ki according to a competitive mechanism with respect to the substrate ATP. […] Since (i) the ATP concentration was limiting, i.e., [ATP], Km(ATP), and (ii) the enzyme concentration was not negligible with respect to the ATP concentration, the classical Cheng-Prusoff relationship was not applicable. Consequently, Ki values were calculated according to [drawing 3] (2) where S0 is the concentration of the competing substrate (ATP) and E0 is the concentration of the enzyme. Each experiment was done in triplicate and mean values were used for the interpolation. Curve fitting was performed with the program GraphPad Prism.

c-Src = biological target: T2, c-Src (Homo sapiens, UniProt P12931); assay: Src filter-binding kinase assay (Src Assay Kit); type: biochemical
T2 construct: His tag; purchased Upstate (Lake Placid, NY, USA)
T2 sequence (P12931 whole entry): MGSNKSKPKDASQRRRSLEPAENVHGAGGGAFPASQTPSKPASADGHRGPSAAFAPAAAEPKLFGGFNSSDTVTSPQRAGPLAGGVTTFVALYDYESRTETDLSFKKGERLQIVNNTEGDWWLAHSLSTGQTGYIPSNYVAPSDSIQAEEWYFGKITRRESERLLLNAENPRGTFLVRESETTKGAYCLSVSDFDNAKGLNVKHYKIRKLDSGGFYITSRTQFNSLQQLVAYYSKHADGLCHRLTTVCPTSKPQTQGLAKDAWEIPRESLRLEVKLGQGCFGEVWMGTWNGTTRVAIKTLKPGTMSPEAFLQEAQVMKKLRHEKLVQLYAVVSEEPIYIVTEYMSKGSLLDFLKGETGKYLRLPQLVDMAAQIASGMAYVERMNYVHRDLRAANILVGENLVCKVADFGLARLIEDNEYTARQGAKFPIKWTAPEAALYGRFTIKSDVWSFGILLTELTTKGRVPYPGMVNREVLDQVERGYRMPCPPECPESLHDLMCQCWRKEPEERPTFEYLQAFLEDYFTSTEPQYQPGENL
Procedure: as §1, §2, §3

A2C12 = assay: Western blot, semi-quantitative protein expression; type: cell-based, mouse
Procedure: (§4) For the Western Blot analysis, cells were rinsed and lysed as previously described. An amount of 25 µg protein was used for SDS-PAGE. Antibodies for c-Abl (sc-131), Actin (sc-1616), Cdc2-p34 (sc-8395), EPS15 (sc-1840), FAK (sc-558), c-Fos (sc-52), p38 (sc-7972), p53 (sc-6243) and STAT5 (sc-835x) were obtained from Santa Cruz (Santa Cruz Biotechnology, Heidelberg, Germany), while c-Src (2109) and phospho-Src Y416 (2101) were purchased from Cell Signaling (Cell Signaling Technology, Frankfurt a. M., Germany). The EGFR (06-847), phospho-EGFR Y992 (07-821) and phospho-EGFR Y1045 (04-284) stem from Upstate (Upstate, Schwalbach, Germany) and the hnRNP-K (A300-676A) from Bethyl Labs (Bethyl Laboratories, Montgomery, Texas, USA). Finally p73 (IMG-246) was supplied by Imgenex (Imgenex, Hamburg, Germany). Depending on the primary antibody the secondary antibodies were either horseradish peroxidase-conjugated anti-mouse (AP 160P), anti-rabbit (AP 132P) or anti-sheep (AP 147P) (Chemicon, Schwalbach, Germany).
(§5) Semi-quantitative analysis were carried out with Kodak 1D Image Analysis Software in reference to the vehicle treated control cells (see supplementary table S7).

BetaD5 = assay: Western blot, semi-quantitative protein expression; type: cell-based, mouse
Procedure: as §4, §5

A549 = assay: Western blot, semi-quantitative protein expression; type: cell-based, human
Procedure: as §4, §5

CaCo2 = assay: Western blot, semi-quantitative protein expression; type: cell-based, human
Procedure: as §4, §5

Clc1cccc(Nc2nc(SC3CCCC3)nc3c2cnn3CC(Cl)c2ccccc2)c1 (centres unmarked) [Si135]
Ki (c-Abl): 120 nM | Inhibition of c-Src kinase activity (c-Src): no inhibition | Actin protein expression (A2C12): 88 | EGFR Y992-p protein expression (A2C12): 79 | EGFR Y1045-p protein expression (A2C12): 69 | EGFR protein expression (A2C12): 30 | EPS15 protein expression (A2C12): 83 | FAK protein expression (A2C12): 71 | STAT5 protein expression (A2C12): 95 | c-Abl protein expression (A2C12): 64 | c-Fos protein expression (A2C12): 52 | c-Src protein expression (A2C12): 95 | hnRNP-K protein expression (A2C12): 87 | p38 protein expression (A2C12): 33 | p53 protein expression (A2C12): 58 | p73 protein expression (A2C12): 43 | Actin protein expression (BetaD5): 92 | EGFR Y992-p protein expression (BetaD5): 68 | EGFR Y1045-p protein expression (BetaD5): 148 | EGFR protein expression (BetaD5): 116 | EPS15 protein expression (BetaD5): 759 | FAK protein expression (BetaD5): 114 | STAT5 protein expression (BetaD5): 163 | c-Abl protein expression (BetaD5): 101 | c-Fos protein expression (BetaD5): 98 | c-Src Y416-p protein expression (BetaD5): 20 | c-Src protein expression (BetaD5): 135 | hnRNP-K protein expression (BetaD5): 115 | p38 protein expression (BetaD5): 56 | p53 protein expression (BetaD5): 119 | Actin protein expression (A549): 98 | Cdc2-p34 protein expression (A549): 82 | EGFR Y992-p protein expression (A549): 128 | EGFR Y1045-p protein expression (A549): 23 | EGFR protein expression (A549): 45 | EPS15 protein expression (A549): 56 | FAK protein expression (A549): 130 | STAT5 protein expression (A549): 80 | c-Abl protein expression (A549): 88 | c-Fos protein expression (A549): 50 | c-Src Y416-p protein expression (A549): 110 | c-Src protein expression (A549): 94 | hnRNP-K protein expression (A549): 83 | p38 protein expression (A549): 62 | p53 protein expression (A549): 59 | p73 protein expression (A549): 55 | Actin protein expression (CaCo2): 120 | Cdc2-p34 protein expression (CaCo2): 74 | EGFR Y992-p protein expression (CaCo2): 113 | EGFR Y1045-p protein expression (CaCo2): 104 | EGFR protein expression (CaCo2): 44 | EPS15 protein expression (CaCo2): 79 | FAK protein expression (CaCo2): 82 | STAT5 protein expression (CaCo2): 120 | c-Abl protein expression (CaCo2): 155 | c-Fos protein expression (CaCo2): 164 | c-Src Y416-p protein expression (CaCo2): 129 | c-Src protein expression (CaCo2): 125 | hnRNP-K protein expression (CaCo2): 90 | p38 protein expression (CaCo2): 64 | p53 protein expression (CaCo2): 69 | p73 protein expression (CaCo2): 66

CSc1nc(NCCc2ccc(Cl)cc2)c2cnn(CC(Cl)c3ccccc3)c2n1 (centres unmarked) [Si57]
Actin protein expression (A2C12): 97 | EGFR Y992-p protein expression (A2C12): 117 | EGFR Y1045-p protein expression (A2C12): 29 | EGFR protein expression (A2C12): 66 | EPS15 protein expression (A2C12): 89 | FAK protein expression (A2C12): 47 | STAT5 protein expression (A2C12): 104 | c-Abl protein expression (A2C12): 49 | c-Fos protein expression (A2C12): 82 | c-Src protein expression (A2C12): 92 | hnRNP-K protein expression (A2C12): 104 | p38 protein expression (A2C12): 59 | p53 protein expression (A2C12): 60 | p73 protein expression (A2C12): 40 | Actin protein expression (BetaD5): 98 | EGFR Y992-p protein expression (BetaD5): 116 | EGFR Y1045-p protein expression (BetaD5): 65 | EGFR protein expression (BetaD5): 61 | EPS15 protein expression (BetaD5): 781 | FAK protein expression (BetaD5): 98 | STAT5 protein expression (BetaD5): 192 | c-Abl protein expression (BetaD5): 89 | c-Fos protein expression (BetaD5): 58 | c-Src Y416-p protein expression (BetaD5): 19 | c-Src protein expression (BetaD5): 153 | hnRNP-K protein expression (BetaD5): 126 | p38 protein expression (BetaD5): 76 | p53 protein expression (BetaD5): 248 | Actin protein expression (A549): 92 | Cdc2-p34 protein expression (A549): 55 | EGFR Y992-p protein expression (A549): 58 | EGFR Y1045-p protein expression (A549): 6.66 | EGFR protein expression (A549): 9 | EPS15 protein expression (A549): 70 | FAK protein expression (A549): 154 | STAT5 protein expression (A549): 34 | c-Abl protein expression (A549): 43 | c-Fos protein expression (A549): 49 | c-Src Y416-p protein expression (A549): 65 | c-Src protein expression (A549): 100 | hnRNP-K protein expression (A549): 83 | p38 protein expression (A549): 27 | p53 protein expression (A549): 33 | p73 protein expression (A549): 24 | Actin protein expression (CaCo2): 131 | Cdc2-p34 protein expression (CaCo2): 119 | EGFR Y992-p protein expression (CaCo2): 163 | EGFR Y1045-p protein expression (CaCo2): 259 | EGFR protein expression (CaCo2): 37 | EPS15 protein expression (CaCo2): 122 | FAK protein expression (CaCo2): 111 | STAT5 protein expression (CaCo2): 123 | c-Abl protein expression (CaCo2): 217 | c-Fos protein expression (CaCo2): 129 | c-Src Y416-p protein expression (CaCo2): 155 | c-Src protein expression (CaCo2): 106 | hnRNP-K protein expression (CaCo2): 98 | p38 protein expression (CaCo2): 84 | p53 protein expression (CaCo2): 70 | p73 protein expression (CaCo2): 78
